Laboratory results taken from publication PMC4891657, “Orexin 2 Receptor Antagonism is Sufficient to Promote NREM and REM Sleep from Mouse to Man” (Scientific Reports, 2016).
Residue numbers refer to the chain shown, from its start.

Experiments:
[1] = target: T1, hOX1R (Homo sapiens, UniProt O43613); test: Inhibition of orexin-peptide-A-induced calcium mobilization in CHO cells, human OX1R; assay type: cell-based
T1 construct: expressed in transfected cells; host or cells: CHO-K1
T1 sequence (O43613 1-425): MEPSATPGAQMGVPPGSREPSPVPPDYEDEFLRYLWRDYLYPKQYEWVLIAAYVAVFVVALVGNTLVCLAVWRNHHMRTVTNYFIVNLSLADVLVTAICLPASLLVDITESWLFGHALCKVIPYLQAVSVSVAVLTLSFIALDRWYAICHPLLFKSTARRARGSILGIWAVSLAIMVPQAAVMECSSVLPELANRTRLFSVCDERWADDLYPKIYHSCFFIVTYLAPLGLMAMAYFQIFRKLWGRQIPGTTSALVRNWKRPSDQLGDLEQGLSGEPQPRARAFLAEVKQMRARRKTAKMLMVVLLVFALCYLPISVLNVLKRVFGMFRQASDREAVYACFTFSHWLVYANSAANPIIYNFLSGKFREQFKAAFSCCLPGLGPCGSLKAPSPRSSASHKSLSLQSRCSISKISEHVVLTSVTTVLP
Experimental: (§1) MK-1064 was evaluated for its ability to inhibit orexin-peptide-A-induced calcium mobilization in CHO cell lines separately expressing OX1R and OX2R from mice, rats, rabbits, dogs, rhesus monkeys and humans.
(§2) Binding and functional blockade of OX1R and OX2R with MK-1064 relative to other 2-SORAs and the DORA, MK-6096, were assessed using membranes from Chinese hamster ovary (CHO)-K1 cells (American Type Tissue Collection, Manassas, VA) transfected to express human, mouse, rat, rabbit, dog, or rhesus monkey OX1R or OX2R receptors, as described previously. The kinetics of binding to human OX2R was assessed by radioligand displacement on CHO-K1 cells expressing the receptor. […] The ON rate analysis was performed by presoaking GF/B filters in 0.3% polyethyleneimine (Sigma) using a Skatron 12-well cell harvester and cold buffer at the indicated time points after addition. For OFF rate determination, binding reactions were allowed to proceed to equilibrium and terminated with 1000x [Kd] of unlabeled antagonist and filtered as above at pre-determined time points. Ultima Gold^TM (PerkinElmer 6013327) scintillation cocktail was added to each filter disc and counted on a PerkinElmer TriCarb 2910 scintillation counter. Data were analyzed using GraphPad® Prism v 6.04 (San Diego, CA, USA). The KON rate was determined according to the equation, KON = (KOBS − KOFF)/[ligand].

[2] = target: T2, OX2R (Macaca mulatta, UniProt F7CZM2); test: Inhibition of orexin-peptide-A-induced calcium mobilization in CHO cells, rhesus OX2R; assay type: cell-based, rhesus monkey; conditions: for fold OX2R selectivity (Kb): OX1R Kb / OX2R Kb
T2 sequence (F7CZM2 1-444): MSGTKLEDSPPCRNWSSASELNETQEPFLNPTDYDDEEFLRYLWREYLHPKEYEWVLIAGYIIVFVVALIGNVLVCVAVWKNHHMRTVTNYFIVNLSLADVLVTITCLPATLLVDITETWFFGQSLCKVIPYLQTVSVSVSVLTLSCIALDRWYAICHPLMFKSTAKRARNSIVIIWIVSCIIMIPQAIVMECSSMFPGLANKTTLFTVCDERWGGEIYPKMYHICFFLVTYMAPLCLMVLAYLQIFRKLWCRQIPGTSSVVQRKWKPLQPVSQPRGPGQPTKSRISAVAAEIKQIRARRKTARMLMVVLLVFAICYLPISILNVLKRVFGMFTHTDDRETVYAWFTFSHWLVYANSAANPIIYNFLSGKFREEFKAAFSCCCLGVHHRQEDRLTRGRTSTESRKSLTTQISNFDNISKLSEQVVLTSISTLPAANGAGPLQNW
Experimental: as §1, §2

[3] = target: T3, OX1R (Macaca mulatta, UniProt F7FE63); test: Inhibition of orexin-peptide-A-induced calcium mobilization in CHO cells, rhesus OX1R; assay type: cell-based, rhesus monkey
T3 sequence (F7FE63 1-425): T1 sequence (O43613 1-425) with G12R, P15T, V58L, A102V, A174T, I175V, E275Q, L380P, I408V, I411L
Experimental: as §1, §2

[4] = target: T4, OX2R (Homo sapiens, UniProt O43614); test: Radio-ligand displacement binding, CHO-K1 membranes, human OX2R; set-up: expressed in transfected cells; host or cells: CHO-K1; conditions: for fold OX2R selectivity (Ki): OX1R Ki / OX2R Ki; for Ki: read-out: OX2R affinity (Ki)
T4 sequence (O43614 1-444): T2 sequence (F7CZM2 1-444) with L113V, S195T, M196V, I286M, V308I, T334A, D337E
Experimental: as §1, §2

[5] = target: T5, OX2R (Oryctolagus cuniculus, UniProt G1STQ8); test: Inhibition of orexin-peptide-A-induced calcium mobilization in CHO cells, rabbit OX2R; assay type: cell-based; conditions: for fold OX2R selectivity (Kb): OX1R Kb / OX2R Kb
T5 sequence (G1STQ8 1-444): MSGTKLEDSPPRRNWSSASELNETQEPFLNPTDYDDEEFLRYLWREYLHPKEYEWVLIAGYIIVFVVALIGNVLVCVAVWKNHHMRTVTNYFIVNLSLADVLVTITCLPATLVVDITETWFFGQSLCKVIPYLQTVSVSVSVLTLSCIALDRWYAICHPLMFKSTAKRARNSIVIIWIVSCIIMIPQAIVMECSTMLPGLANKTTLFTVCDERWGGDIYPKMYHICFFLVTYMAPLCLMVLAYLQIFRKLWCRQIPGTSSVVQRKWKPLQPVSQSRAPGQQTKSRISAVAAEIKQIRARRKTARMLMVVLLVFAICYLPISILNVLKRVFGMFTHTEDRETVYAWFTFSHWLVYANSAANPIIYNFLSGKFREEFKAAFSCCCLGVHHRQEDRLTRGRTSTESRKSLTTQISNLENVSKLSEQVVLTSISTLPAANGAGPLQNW
Experimental: as §1, §2

Cc1ccc(-c2ncccn2)c(C(=O)N2C[C@H](COc3ccc(F)cn3)CC[C@H]2C)c1 [MK-6096]
Kb [1]: 11 nM
Kb [2]: 14 nM
fold OX2R selectivity (Kb) [2]: [1.5] fold
Kb [3]: 21 nM
fold OX2R selectivity (Ki) [4]: [8.1] fold
Ki [4]: 0.31 nM
Kb [5]: 16 nM
fold OX2R selectivity (Kb) [5]: [0.8] fold

COc1ccc(CNC(=O)c2cc(-c3cncc(C)c3)ncc2-c2ccccc2)nc1OC [2-SORA-7]
Kb [1]: 4360 nM
Kb [2]: 18 nM
fold OX2R selectivity (Kb) [2]: [203] fold
Kb [3]: 3650 nM
fold OX2R selectivity (Ki) [4]: [5957] fold
Ki [4]: 0.47 nM
Kb [5]: 22 nM
fold OX2R selectivity (Kb) [5]: [764] fold

COc1ccc(CNC(=O)c2cc(-c3cncc(Cl)c3)cnc2-c2ccccn2)nc1OC [MK-1064, 5″-chloro-N-[(5,6-dimethoxypyridin-2-yl)methyl]-2,2′:5′, 3″-terpyridine-3′-carbo xamide]
Kb [1]: 1870 nM
Kb [2]: 9 nM
fold OX2R selectivity (Kb) [2]: [375] fold
Kb [3]: 3370 nM
fold OX2R selectivity (Ki) [4]: [2885] fold
Ki [4]: 0.52 nM
Kb [5]: 10 nM
fold OX2R selectivity (Kb) [5]: [737] fold

COc1ccc(CNC(=O)c2cc(-c3cncc(C)c3)ncc2-c2nccs2)nc1OC [MK-3697]
Kb [2]: 20 nM
Kb [3]: 21400 nM
Ki [4]: 0.97 nM
Kb [5]: 27 nM

COc1ccc(CNC(=O)c2cc(-c3cc(Cl)cc(Cl)c3)cnc2-c2cccnc2)cc1OC [2-SORA-18]
Kb [1]: 161 nM
Kb [2]: 23 nM
fold OX2R selectivity (Kb) [2]: [6] fold
Kb [3]: 141 nM
fold OX2R selectivity (Ki) [4]: [1000] fold
Ki [4]: 0.1 nM
Kb [5]: 30 nM
fold OX2R selectivity (Kb) [5]: [17] fold
